Assay [1] deals with RRE. The assay can be described thus: Fluorescence titration / evaluation of binding with RRE. Details: species or system HIV-1. The protocol:
In this Example, binding between RRE and X2S was evaluated by a method identical to the method in Example 2.
The […] of RRE is shown in SEQ ID NO: 8. […] RRE was purchased from Hokkaido System Science Co., Ltd.
Firstly, the X2S solution obtained in Example 1 was diluted with a cacodylate buffer solution (sodium cacodylate: 10 mM, pH 7.0; NaCl: 100 mM), so that a concentration of X2S became 2 μM. To the 2-μM X2S solution thus obtained, RRE was added in steps at 0 μM, 1 μM, 2 μM, 3 μM, 4 μM, 5 μM, 6 μM, and 8 μM. Further, a fluorescence intensity of the 2-μM X2S solution was measured at each concentration. The fluorescence intensity was measured in the same manner as in Example 2.
FIG. 7 is a view illustrating a result of evaluation of binding between X2S and RRE. In FIG. 7, the horizontal axis represents the fluorescence wavelength, whereas the vertical axis represents the fluorescence intensity. […] Other figures include such arrows for results of measurements of fluorescence intensities.
FIG. 8 is a view plotting the fluorescence intensities at a measured wavelength of 453 nm shown in the result illustrated in FIG. 7. The horizontal axis represents the concentration of RRE, whereas the vertical axis represents the fluorescence intensity.
Then, changes in fluorescence intensities were observed.
Firstly, X2S, X2S(3), X2S(4), X2S(5), X2S(2-Me), and 3,6-X2S(2) were respectively mixed with cacodylate buffer solutions (sodium cacodylate: 10 mM, pH 7.0; NaCl: 100 mM) each at 1.0 μM, so that solutions of the respective compounds were obtained. RRE used in this Example was the same as that used in Example 4. RRE was added to each of the solutions of the respective compounds in steps at 0.0 μM, 0.2 μM, 0.4 μM, 0.8 μM, and 1.0 μM.
Each of the solutions to which RRE was added was irradiated with light, and a fluorescence intensity was measured. A device used for measuring the fluorescence intensity was the same as that used in Example 13. A variation in a slit width was also the same as that in Example 14.
FIG. 39 is a graph illustrating a relationship between a concentration of RRE added and a fluorescence intensity of each compound. Further, FIG. 39 is also a view plotting the fluorescence intensities of the respective fluorescence peaks shown in the results illustrated in FIGS. 33 to 38. FIG. 40 is a view plotting residual fluorescence intensities (%) which were obtained based on the results shown in FIGS. 33 to 38, assuming that the fluorescence intensities of the respective fluorescence peaks observed at a concentration of 0.0 μM of RRE were 100%. In each of FIGS. 39 and 40, the horizontal axis represents the concentration of the RNA. In FIG. 39, the vertical axis represents the fluorescence intensity. In FIG. 40, the vertical axis represents the residual fluorescence intensity (%).
FIG. 41 is a view plotting values obtained by dividing (i) the residual fluorescence intensities (%) obtained in the case involving use of the double strand RNA by (ii) the residual fluorescence intensities (%) obtained in the case involving use of RRE. That is, FIG. 41 is a view plotting values obtained by dividing (i) the residual fluorescence intensity (%) shown in FIG. 32 by (ii) the residual fluorescence intensities (%) shown in FIG. 40. FIG. 42 is a view plotting values obtained by subtracting (i) the residual fluorescence intensities (%) obtained in the case involving use of RRE from (ii) the residual fluorescence intensities (%) obtained in the case involving use of the double strand RNA. That is, FIG. 42 is a view plotting values obtained by subtracting (i) the residual fluorescence intensities (%) shown in FIG. 40 from (ii) the residual fluorescence intensities (%) shown in FIG. 32.
In this Example, 1-Pyrenemethanamide, hydrochloride was caused to bind to a double strand RNA or RRE. Then, a change in a fluorescence intensity was observed. […]

For assay [2], the system named is RNAs of FIG. 2 (SEQ ID NOs: 1 through 3), with or without bulge structure. The assay can be described thus: Evaluation of binding between xanthone fluorescent molecule and RNA (fluorescence before and after mixing RNA). To be noted: 10 μM compound, 30 μM RNA (A, U, C, G bulge or no bulge), cacodylate buffer pH 7.0, NaCl 100 mM. The protocol:
Next, binding between X2S and RNAs was evaluated. The RNAs used in the present example had the structure illustrated in FIG. 2. FIG. 2 is a diagram schematically illustrating the structure of the RNAs used in the present example. The RNAs used in the present example had sequences shown in SEQ ID NOs: 1 through 3.
The symbol N in FIG. 2 represents either a base out of A, U, C, and G, or no base. Thus, in a case where a particular RNA as in FIG. 2 has N representing a base out of A, U, C, and G, the RNA is an RNA formed by hybridization of an RNA having the base sequence shown in SEQ ID NO: 1 with a single strand RNA having the base sequence shown in SEQ ID NO: 2. On the other hand, in a case where a particular RNA as in FIG. 2 has N representing no base, the RNA is an RNA formed by hybridization of an RNA having the base sequence shown in SEQ ID NO: 1 with an RNA having the base sequence shown in SEQ ID NO: 3.
This also applies to other bases. The RNAs used in the present example were purchased from Hokkaido System Science Co., Ltd.
Firstly, X2S was mixed in a cacodylate buffer solution (sodium cacodylate: 10 mM, pH 7.0; NaCl: 100 mM) at 10 μM, so that an X2S solution was obtained. The X2S solution was irradiated with light having an absorption maximum of 371±3 nm, and a fluorescence intensity was then measured. The fluorescence intensity was measured with use of a device (product number: RF-5300PC) available from Shimadzu Corporation. For each type of the RNAs, the fluorescence intensity was measured after the RNA was mixed in the X2S solution at 30 μM.
FIGS. 3 and 4 compare the fluorescence intensities measured before and after the RNA was mixed. […] The horizontal axis represents the fluorescence wavelength, whereas the vertical axis represents the fluorescence intensity. FIG. 4 is an enlarged graph corresponding to the fluorescence intensity of 5 A.U. in FIG. 3 and its vicinity.
Binding between X1S and RNAs was evaluated by a method identical to the method described in Example 2, except that X1S was used instead of X2S. […]

In the case of `NCCOc1ccc2oc3ccc(OCCN)cc3c(=O)c2c1` [X2S, 2,7-bis(2-aminoethoxy)xanthen-9-one], the “reduction of fluorescence intensity (residual fluorescence intensity) on binding RRE” value in assay [1] (1.0 μM compound, RRE 0.0-1.0 μM) was “particularly high reduction rates”. In assay [1] (2 μM X2S, RRE 0-8 μM, 453 nm), the “fluorescence of X2S on binding to RRE” value is listed as “fluorescence of X2S is quenched”. In addition, the “difference in quenching efficiency between RRE and double strand RNA” value in assay [1] (FIGS. 41 and 42, 1.0 μM compound) is reported as “greatest”. Besides, the “binding to RNAs” value in assay [2] is “capable of binding to RNAs having various structures”.

The record behind these values is US8741659B2, “Composition for measuring the binding affinity between nucleic acid and test substance, and use thereof” (Osaka University, priority 2007, dated 2014).
